Results from US11254686B1 (Corvus Pharmaceuticals, Inc., priority 2017, dated 2022).

How the values were obtained:
adenosine A2B receptor = adenosine A2B receptor (Homo sapiens (Human), UniProt P29275); assay: Adenosine receptor activity assay (Table 1), A2B activity; type: biochemical; details: for Ratio: A2A activity to the A2B activity, A2A/A2B; for IC50: read-out: Ave A2B cAMP IC50
adenosine A2A receptor = adenosine A2A receptor (Homo sapiens (Human), UniProt P29274); assay: Adenosine receptor activity assay (Table 1), A2A activity; type: biochemical; details: read-out: Ave A2A cAMP IC50
Chain of adenosine A2A receptor (P29274 whole entry): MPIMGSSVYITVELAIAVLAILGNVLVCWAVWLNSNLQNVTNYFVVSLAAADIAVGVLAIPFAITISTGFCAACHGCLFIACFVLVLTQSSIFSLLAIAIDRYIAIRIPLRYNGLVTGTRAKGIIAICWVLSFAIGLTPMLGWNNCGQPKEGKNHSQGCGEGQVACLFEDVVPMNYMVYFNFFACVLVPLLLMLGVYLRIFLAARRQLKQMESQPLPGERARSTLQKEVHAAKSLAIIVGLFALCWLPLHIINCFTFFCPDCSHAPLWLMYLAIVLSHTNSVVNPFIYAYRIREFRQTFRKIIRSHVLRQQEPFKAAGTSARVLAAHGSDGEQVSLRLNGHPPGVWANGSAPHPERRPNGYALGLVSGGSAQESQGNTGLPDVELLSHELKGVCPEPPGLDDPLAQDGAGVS

Chain of adenosine A2B receptor (P29275 whole entry): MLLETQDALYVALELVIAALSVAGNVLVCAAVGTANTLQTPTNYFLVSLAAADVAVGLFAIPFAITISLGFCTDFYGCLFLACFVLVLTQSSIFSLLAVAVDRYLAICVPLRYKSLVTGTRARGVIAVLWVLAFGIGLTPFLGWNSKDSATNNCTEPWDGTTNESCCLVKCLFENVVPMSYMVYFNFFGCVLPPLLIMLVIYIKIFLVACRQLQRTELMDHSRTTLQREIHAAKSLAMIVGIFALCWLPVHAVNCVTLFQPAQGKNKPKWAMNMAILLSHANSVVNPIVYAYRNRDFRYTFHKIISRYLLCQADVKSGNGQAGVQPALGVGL

Row | Ratio (adenosine A2B receptor) | IC50 (adenosine A2B receptor) | IC50 (adenosine A2A receptor) | SMILES
1 | 12.22 | 50 to 100 nM | > 500 nM | CO[C@H](C)CNC(=O)c1nc(N[C@@H](C)c2cccnc2)nc2cc(C)sc12 [Example Z400, N—((R)-2-Methoxypropyl)-6-methyl-2-(((S)-1-(pyridin-3-yl)ethyl)amino)thieno[3,2-d]pyrimidine-4-carboxamide]
2 | – | 10 to 50 nM | 100 to 500 nM | C[C@H](Nc1nc(C(=O)N2CCCC2)c2sccc2n1)c1ccnc(F)c1 [Example Z406, (S)-(2-((1-(2-Fluoropyridin-4-yl)ethyl)amino)thieno[3,2-d]pyrimidin-4-yl)(pyrrolidin-1-yl)methanone]
3 | 8.11 | 100 to 500 nM | > 500 nM | C[C@H](Nc1nc(C(=O)N2CC[C@H](O)C2)c2sccc2n1)c1ccnc(F)c1 [Example Z407, (2-(((S)-1-(2-Fluoropyridin-4-yl)ethyl)amino)thieno[3,2-d]pyrimidin-4-yl)((S)-3-hydroxypyrrolidin-1-yl)methanone]
4 | 6.69 | 50 to 100 nM | > 500 nM | C[C@H](Nc1nc(C(=O)N2CC[C@@H](O)C2)c2sccc2n1)c1ccnc(F)c1 [Example Z408, (2-(((S)-1-(2-Fluoropyridin-4-yl)ethyl)amino)thieno[3,2-d]pyrimidin-4-yl)((R)-3-hydroxypyrrolidin-1-yl)methanone]
5 | 4.87 | 100 to 500 nM | > 500 nM | C[C@H](Nc1nc(C(=O)NCCc2cccc(Oc3ccccc3)c2)c2sccc2n1)c1cncc(F)c1 [Example Z417, (S)-2-((1-(5-Fluoropyridin-3-yl)ethyl)amino)-N-(3-phenoxyphenethyl)thieno[3,2-d]pyrimidine-4-carboxamide]
6 | 5.38 | 50 to 100 nM | 100 to 500 nM | COc1ccc(CCNC(=O)c2nc(N[C@@H](C)c3cncc(F)c3)nc3ccsc23)cc1 [Example Z420, (S)-2-((1-(5-Fluoropyridin-3-yl)ethyl)amino)-N-(4-methoxyphenethyl)thieno[3,2-d]pyrimidine-4-carboxamide]
7 | 5.22 | 100 to 500 nM | > 500 nM | COC(=O)c1ccc(CCNC(=O)c2nc(N[C@@H](C)c3cncc(F)c3)nc3ccsc23)cc1 [Example Z423, Methyl (S)-4-(2-(2-((1-(5-fluoropyridin-3-yl)ethyl)amino)thieno[3,2-d]pyrimidine-4-carboxamido)ethyl)benzoate]
8 | 1.46 | 50 to 100 nM | 50 to 100 nM | C[C@H](Nc1nc(C(=O)NCCC2CCCC2)c2sccc2n1)c1ccccn1 [Example Z424, (S)—N-(2-Cyclopentylethyl)-2-((1-(pyridin-2-yl)ethyl)amino)thieno[3,2-d]pyrimidine-4-carboxamide]
9 | 0.82 | 100 to 500 nM | 50 to 100 nM | C[C@H](Nc1nc(C(=O)NCCC2CCN(C(=O)OC(C)(C)C)C2)c2sccc2n1)c1ccccn1 (stereo partly drawn) [Example Z425, tert-Butyl 3-(2-(2-(((S)-1-(pyridin-2-yl)ethyl)amino)thieno[3,2-d]pyrimidine-4-carboxamido)ethyl)pyrrolidine-1-carboxylate]
10 | 3.47 | 50 to 100 nM | 100 to 500 nM | C[C@H](Nc1nc(C(=O)NCCC2CN(C(=O)OC(C)(C)C)C2)c2sccc2n1)c1ccccn1 [Example Z426, tert-Butyl (S)-3-(2-(2-((1-(pyridin-2-yl)ethyl)amino)thieno[3,2-d]pyrimidine-4-carboxamido)ethyl)azetidine-1-carboxylate]
11 | 37.04 | 100 to 500 nM | > 500 nM | C[C@H](Nc1nc(C(=O)NCCC2CCNC2)c2sccc2n1)c1ccccn1 (stereo partly drawn) [Example Z431, 2-(((S)-1-(Pyridin-2-yl)ethyl)amino)-N-(2-(pyrrolidin-3-yl)ethyl)thieno[3,2-d]pyrimidine-4-carboxamide]
12 | 57.47 | 100 to 500 nM | > 500 nM | C[C@H](Nc1nc(C(=O)NCCC2CNC2)c2sccc2n1)c1ccccn1 [Example Z432, (S)—N-(2-(Azetidin-3-yl)ethyl)-2-((1-(pyridin-2-yl)ethyl)amino)thieno[3,2-d]pyrimidine-4-carboxamide]
13 | 0.08 | > 500 nM | 50 to 100 nM | COc1ccc(CNc2nc(C(=O)NC3CCC3)c3sccc3n2)cn1 [Example Z434, N-Cyclobutyl-2-(((6-methoxypyridin-3-yl)methyl)amino)thieno[3,2-d]pyrimidine-4-carboxamide]
14 | 0.15 | > 500 nM | 100 to 500 nM | COc1ccc(CNc2nc(C(=O)NCc3cccnc3)c3sccc3n2)cn1 [Example Z436, 2-(((6-Methoxypyridin-3-yl)methyl)amino)-N-(pyridin-3-ylmethyl)thieno[3,2-d]pyrimidine-4-carboxamide]
15 | – | 100 to 500 nM | 100 to 500 nM | COc1cccc(CCNC(=O)c2nc(N[C@@H](C)c3ccccn3)nc3ccsc23)c1 [Example Z437, (S)—N-(3-Methoxyphenethyl)-2-((1-(pyridin-2-yl)ethyl)amino)thieno[3,2-d]pyrimidine-4-carboxamide]
16 | 2.65 | 10 to 50 nM | 50 to 100 nM | CCO[C@@H]1CCN(C(=O)c2nc(N[C@@H](C)c3ccccn3)nc3ccsc23)C1 [Example Z438, ((R)-3-Ethoxypyrrolidin-1-yl)(2-(((S)-1-(pyridin-2-yl)ethyl)amino)thieno[3,2-d]pyrimidin-4-yl)methanone]
17 | 0.29 | > 500 nM | 100 to 500 nM | CCOc1ccc(CNc2nc(C(=O)NCCc3cccc(O)c3)c3sccc3n2)cn1 [Example Z439, 2-(((6-Ethoxypyridin-3-yl)methyl)amino)-N-(3-hydroxyphenethyl)thieno[3,2-d]pyrimidine-4-carboxamide]
18 | 1.91 | 100 to 500 nM | 100 to 500 nM | CO[C@H]1CCN(C(=O)c2nc(N[C@@H](C)c3ccccn3)nc3c(C)csc23)C1 [Example Z440, ((S)-3-Methoxypyrrolidin-1-yl)(7-methyl-2-(((S)-1-(pyridin-2-yl)ethyl)amino)thieno[3,2-d]pyrimidin-4-yl)methanone]
19 | 1.21 | 10 to 50 nM | 10 to 50 nM | CO[C@@H]1CCN(C(=O)c2nc(N[C@@H](C)c3ccccn3)nc3c(C)csc23)C1 [Example Z441, ((R)-3-Methoxypyrrolidin-1-yl)(7-methyl-2-(((S)-1-(pyridin-2-yl)ethyl)amino)thieno[3,2-d]pyrimidin-4-yl)methanone]
20 | 2.19 | 100 to 500 nM | 100 to 500 nM | CCO[C@H]1CCN(C(=O)c2nc(N[C@@H](C)c3ccccn3)nc3ccsc23)C1 [Example Z442, ((S)-3-Ethoxypyrrolidin-1-yl)(2-(((S)-1-(pyridin-2-yl)ethyl)amino)thieno[3,2-d]pyrimidin-4-yl)methanone]
21 | 0.44 | 50 to 100 nM | 10 to 50 nM | Cc1csc2c(C(=O)NCc3ccccc3)nc(N[C@@H](C)c3ccccn3)nc12 [Example Z443, (S)—N-Benzyl-7-methyl-2-((1-(pyridin-2-yl)ethyl)amino)thieno[3,2-d]pyrimidine-4-carboxamide]
22 | 0.35 | 100 to 500 nM | 50 to 100 nM | COc1cccc(CCNC(=O)c2nc(N[C@@H](C)c3ccccn3)nc3c(C)csc23)c1 [Example Z444, (S)—N-(3-Methoxyphenethyl)-7-methyl-2-((1-(pyridin-2-yl)ethyl)amino)thieno[3,2-d]pyrimidine-4-carboxamide]
23 | 9.62 | 50 to 100 nM | > 500 nM | C[C@H](Nc1nc(C(=O)NCCc2cccc(C#N)c2)c2sccc2n1)c1cncc(F)c1 [Example Z445, (S)—N-(3-Cyanophenethyl)-2-((1-(5-fluoropyridin-3-yl)ethyl)amino)thieno[3,2-d]pyrimidine-4-carboxamide]
24 | 0.56 | > 500 nM | > 500 nM | C[C@H](Nc1nc(C(=O)NCC2CCN(CCc3ccccc3)CC2)c2sccc2n1)c1ccccn1 [Example Z446, (S)—N-((1-Phenethylpiperidin-4-yl)methyl)-2-((1-(pyridin-2-yl)ethyl)amino)thieno[3,2-d]pyrimidine-4-carboxamide]
25 | 1.23 | 50 to 100 nM | 50 to 100 nM | Cc1csc2c(C(=O)NCCc3cccc(O)c3)nc(N[C@@H](C)c3ccccn3)nc12 [Example Z447, (S)—N-(3-Hydroxyphenethyl)-7-methyl-2-((1-(pyridin-2-yl)ethyl)amino)thieno[3,2-d]pyrimidine-4-carboxamide]
26 | 0.91 | > 500 nM | > 500 nM | COc1ncccc1CNC(=O)c1nc(N[C@@H](C)c2ccccn2)nc2ccsc12 [Example Z449, (S)—N-((2-Methoxypyridin-3-yl)methyl)-2-((1-(pyridin-2-yl)ethyl)amino)thieno[3,2-d]pyrimidine-4-carboxamide]
27 | 19.85 | 100 to 500 nM | > 500 nM | C[C@H](Nc1nc(C(=O)NCCc2ccc(C(=O)O)cc2)c2sccc2n1)c1cncc(F)c1 [Example Z452, (S)-4-(2-(2-((1-(5-Fluoropyridin-3-yl)ethyl)amino)thieno[3,2-d]pyrimidine-4-carboxamido)ethyl)benzoic acid]
28 | 0.43 | 100 to 500 nM | 100 to 500 nM | CCOc1ccc(CNc2nc(C(=O)N3CCC3)c3sccc3n2)cn1 [Example Z453, Azetidin-1-yl(2-(((6-ethoxypyridin-3-yl)methyl)amino)thieno[3,2-d]pyrimidin-4-yl)methanone]
29 | 38.75 | 10 to 50 nM | > 500 nM | C[C@H](Nc1nc(C(=O)NCCc2ccc(S(N)(=O)=O)cc2)c2sccc2n1)c1cncc(F)c1 [Example Z454, (S)-2-((1-(5-Fluoropyridin-3-yl)ethyl)amino)-N-(4-sulfamoylphenethyl)thieno[3,2-d]pyrimidine-4-carboxamide]
